Patent US20230026402A1, “MICROBIOTA BASED THERAPIES TO PROMOTE MENTAL HEALTH” (Cornell University, priority 2019, published 2023)
Entries after “also recorded” stand apart in the source; their conditions may differ. Structures can show the parent of a compound that is named as a salt.

How the values were obtained:
[1] = test system: BV-2 immortalized mouse microglia; experiment: Metabolite time course in BV-2 microglia (Ki67 proliferation, CSF1R and F4/80 surface staining); format: cell-based; settings: BV-2 cells, 32 ug/mL of each compound; for proliferation (percent Ki67+ cells): 5 days (120 h); for CSF1R cell surface staining intensity (MFI) / F4/80 cell surface staining intensity (MFI): 5 days
Method: FIG. 26. Representation of the outline of metabolite time course experiment utilizing BV-2 immortalized mouse microglia. BV-2 cells are plated with either media alone, or with a cocktail of the 4 metabolites identified in slide 1 at a final concentration of 32 ug/mL of each compound at the indicated time points. Cells are then harvested and stained using conventional methods for either cell surface markers or the proliferation marker Ki67.
FIG. 27. Metabolite treatment increases proliferative capacity and alters the cell surface profile of BV-2 cells. Results of metabolite time course in BV-2 cells. […] Each bar is the average of 4 separate wells+/−SEM. P-vales calculated using two-way ANOVA.
FIG. 29. […] In order to test the ability of the AhR ligand indoxyl sulfate in BV-2 microglia, cells were treated for 5 days with either a cocktail of metabolites or with indoxyl sulfate (32 ug/mL of all compounds tested). […] Each bar is the average of 4 separate wells+/−SEM. P-vales calculated using two-way ANOVA.
Purified cultures, or immortalized equivalents were used. The cells were treated with a cocktail of the 4 metabolites to evaluate microglial response to metabolite treatment (FIG. 26). […] There is a relatively linear effect with increasing proportions of proliferation or F4/80, CSF1R high cells with increasing exposure to the metabolite cocktail.
We next asked if individual metabolites were responsible for the biological activity of the metabolite cocktail or whether multiple metabolites were required.

BV-2 cells [2] = experiment: AhR blockade of metabolite-induced changes in BV-2 microglia; format: cell-based, mouse; settings: metabolite cocktail 32 ug/mL each plus CH223191 5 uM, 5 days
Method: FIG. 28. […] Results of AhR blockade on metabolite-induced proliferation and cell surface profile changes in BV-2 microglia. BV-2 cells were treated with vehicle (DMSO), metabolite cocktail (32 ug/mL of each metabolite), or metabolite cocktail with the AhR inhibitor CH223191 (5 uM final concentration in DMSO) for 5 days before performing the same analysis as in slide 5 (CSF1R and F4/80 or Ki67 staining). While the increase in F4/80 and CSF1R intensity is dependent on intact AhR signaling (top row), AhR signaling is dispensable for metabolite-induced proliferation (bottom row). Each bar is the average of 4 separate wells+/−SEM. P-vales calculated using two-way ANOVA.

BV-2 cells [3] = experiment: BV-2 phagocytosis assay with apoptotic N2A bait cells (CypHer5); format: cell-based, mouse; settings: metabolite cocktail plus CH223191 5 uM
Excerpt: FIG. 32. Outline of phagocytosis assay in BV-2 cells. Briefly, apoptotic N2A cells (“bait”) are generated by UV irradiation and loaded with the pH sensitive dye CypHer5 before co-culture with Hoechst stained BV-2 cells. After washing, BV-2 cells are the collected and analyzed by flow cytometry.
FIG. 33. […] Each bar is the average of 4 separate wells +/−SEM. P-vales calculated using two-way ANOVA.
Finally, we asked whether treatment with metabolites altered the ability of BV-2 microglia to engulf apoptotic N2A cells as outlined above. In this assay the phagocytes (in this case BV-2 cells) are treated with metabolites or vehicle for 120 h and then loaded with Hoechest dye. N2A cells are killed with UV radiation (confirmed by staining with viability dyes and Annexin V to distinguish apoptotic from necrotic cells) and then loaded with the pH sensitive dye CypHer5 which only fluoresces in the phagolysosome. They are then fed to BV-2 cells for a predetermined length of time (5:1 ratio of N2A to BV-2, 1 h of eating) before being harvested and analyzed by flow cytometry (FIG. 32).

| Compound | proliferation (percent Ki67+ cells) [1] | proliferation (percent Ki67+ cells) ([1]; listed as IS) | CSF1R cell surface staining intensity (MFI) [1] | F4/80 cell surface staining intensity (MFI) [1] | CSF1R cell surface staining intensity (MFI) ([1]; listed as IS) | F4/80 cell surface staining intensity (MFI) ([1]; listed as IS) | metabolite-induced increase in CSF1R intensity under AhR inhibition (BV-2 cells [2]) | metabolite-induced increase in F4/80 intensity under AhR inhibition (BV-2 cells [2]) | metabolite-induced proliferation (Ki67) under AhR inhibition (BV-2 cells [2]) | metabolite-induced phagocytosis under AhR inhibition (BV-2 cells [3]) | metabolite-induced phagocytosis under AhR inhibition (BV-2 cells [3]; listed as Met+CH) |
| --- | --- | --- | --- | --- | --- | --- | --- | --- | --- | --- | --- |
| O=S(=O)(O)Oc1c[nH]c2ccccc12 [indoxyl sulfate] | nor does it increase the proliferative capacity | unable to significantly change either cell surface levels of F4/80 or CSF1R or to increase proliferation | does not increase CSF1R or F4/80 protein staining intensity | does not increase CSF1R or F4/80 protein staining intensity | unable to significantly change | unable to significantly change |  |  |  |  |  |
| Cc1ccccc1N=Nc1ccc(NC(=O)c2ccnn2C)c(C)c1 [CH223191] |  |  |  |  |  |  | required for the upregulation of CSF1R and F4/80; also recorded: reduces metabolite induced changes in surface markers | required for the upregulation of CSF1R and F4/80; also recorded: reduces metabolite induced changes in surface markers | dispensable for enhancement of proliferation; also recorded: does not change proliferation | significance is abolished | NOT dependent on AhR signaling |
